Results on six substances are retold here after paper PMC8951016, “Computational Design and Biological Evaluation of Analogs of Lupin Peptide P5 Endowed with Dual PCSK9/HMG-CoAR Inhibiting Activity” (Pharmaceutics, 2022).

Broadly, the IC50 is the point on the concentration scale where inhibition reaches its midpoint.

Read-outs that look alike come from different tables or passages of the source. No end group written: not given here.

The target of test [1] is T1, PCSK9-LDLR (Homo sapiens, UniProt Q8NBP7).
T1 construct: purchased CycLex Co., Nagano, Japan (CircuLex)
Conditions: cited from earlier work; for impairment of PCSK9-LDLR binding vs control: fixed concentration of 100 µM.

The test system of test [2] is LDLR. Set-up: method as in 3 sources, ref 48 = [48]; doi:10.1111/jfbc.12757; 48. Lammi C. Zanoni C. Arnoldi A. Aiello G. […] (P3), a peptide from lupin protein, absorbed by Caco-2 cells, modulates cholesterol metabolism in HepG2 cells via SREBP-1 activation J. Food B ||| ref 22 = [22]; doi:10.1016/j.jff.2017.02.009; 22. Zanoni C. Aiello G. Arnoldi A. Lammi C. Investigations on the hypocholesterolaemic activity of […] and LTFPGSAED, two peptides from lupin β-conglutin: Focus on LDLR and PCSK9 pathways J. Fu ||| ref 24 = [24]; PMID 33808034; doi:10.3390/nu13030863; 24. Lammi C. Aiello G. Bollati C. Li J. Bartolomei M. Ranaldi G. Ferruzza S. Fassi E.M.A. Grazioso G. Sambuy Y. Trans-Epithelial Transport, Metabolism, and Biological Activity Assessment of the Multi-. Conditions: cellular level, through modulation of SREBP-2; cited from earlier work.

Test [3] has as its system PCSK9. Set-up: method as in 3 sources, ref 49 = [49]; PMID 35011066; doi:10.3390/nu14010193; 49. Macchi C. Greco M.F. Ferri N. Magni P. Arnoldi A. Corsini A. Sirtori C.R. Ruscica M. Lammi C. Impact of Soy β-Conglycinin Peptides on PCSK9 Protein Expression in HepG2 Cells Nutrients 2021 14 193 ||| ref 22 = [22]; doi:10.1016/j.jff.2017.02.009; 22. Zanoni C. Aiello G. Arnoldi A. Lammi C. Investigations on the hypocholesterolaemic activity of […] and LTFPGSAED, two peptides from lupin β-conglutin: Focus on LDLR and PCSK9 pathways J. Fu ||| ref 24 = [24]; PMID 33808034; doi:10.3390/nu13030863; 24. Lammi C. Aiello G. Bollati C. Li J. Bartolomei M. Ranaldi G. Ferruzza S. Fassi E.M.A. Grazioso G. Sambuy Y. Trans-Epithelial Transport, Metabolism, and Biological Activity Assessment of the Multi-. Conditions: cellular level, through modulation of HNF-1α; cited from earlier work.

In test [4] the target is T2, HMG-CoAR (catalytic domain) (Homo sapiens, UniProt P04035).
T2 construct: finally the HMG-CoAR (cata- lytic domain) (2 µL); purchased Sigma-Aldrich
T2 sequence (P04035 426-888 limits assumed): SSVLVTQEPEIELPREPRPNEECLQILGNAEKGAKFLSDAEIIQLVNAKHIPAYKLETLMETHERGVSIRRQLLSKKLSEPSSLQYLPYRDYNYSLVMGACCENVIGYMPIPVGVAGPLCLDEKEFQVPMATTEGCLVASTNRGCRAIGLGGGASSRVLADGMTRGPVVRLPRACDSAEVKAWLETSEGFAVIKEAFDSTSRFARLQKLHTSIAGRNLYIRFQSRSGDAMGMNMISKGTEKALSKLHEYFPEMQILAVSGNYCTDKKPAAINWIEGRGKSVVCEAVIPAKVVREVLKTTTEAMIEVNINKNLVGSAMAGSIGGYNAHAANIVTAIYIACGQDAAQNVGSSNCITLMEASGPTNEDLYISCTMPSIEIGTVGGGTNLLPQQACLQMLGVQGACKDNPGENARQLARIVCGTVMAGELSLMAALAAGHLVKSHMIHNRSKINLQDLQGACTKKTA
Conditions: metabolite; read-out: IC50, HMG-CoAR activity (P5-met); cited from earlier work.

Test [5] has as its target T2, HMG-CoAR (catalytic domain). Put plainly: HMG-CoAR activity assay. It counts as biochemical. The settings on record: 10–500 µM, 37 °C, NADPH oxidation, absorbance 340 nm at 0 and 10 min; four independent experiments in duplicate. As to the method:
The experiments were carried out following the manufacturer instructions and optimized protocol. See Supplementary Materials for further details. […]
cLex Co., Nagano, Japan). The peptides (P5, P5-Best, P-H6A, and P5-S7A) were synthe-sized by the company GeneScript (Piscataway, NJ, USA) at >95% purity. The antibody against HMG-CoAR was bought from Abcam (Cambridge, UK). Phenylmethanesulfonyl fluoride (PMSF), Na-orthovanadate inhibitors, and the antibodies against rabbit Ig-horse-radish peroxidase (HRP), mouse Ig-HRP, and SREBP-2 (which recognizes epitope located in a region between 833–1141 and bands at about 132 kDa) were purchased from Santa Cruz Biotechnology Inc. (Santa Cruz, CA, USA). The antibodies against hepatocyte nu-clear factor 1-alpha (HNF1-alpha) and PCSK9 were bought from GeneTex (Irvine, CA, USA). The inhibitor cocktail Complete Midi was from Roche (Basel, Switzerland). Mini protean TGX pre-cast gel 7.5% and Mini nitrocellulose Transfer Packs were purchased from BioRad (Hercules, CA, USA).
HepG2 Cell Culture Conditions and Treatment. The HepG2 cell line was bought from ATCC (HB-8065, ATCC from LGC Standards, Milan, Italy) and was cultured in DMEM high glucose with stable L-glutamine, supplemented with 10% FBS, 100 U/mL penicillin, 100 µg/mL streptomycin (complete growth medium) with incubation at 37 °C […]
HMG-CoAR Aactivity Assay. The experiments were carried out following the man-ufacturer instructions and optimized protocol. The assay buffer, NADPH, substrate solution, and HMG-CoAR were provided in the HMG-CoAR Assay Kit (Sigma Aldrich SRL, Milan, Italy). […] Subsequently, the samples were mixed and the absorbance at 340 nm read by the microplate reader Synergy H1 (Winooski, VT, USA) at time 0 and 10 min. The HMG-CoAR-dependent oxidation of NADPH and the inhibition properties of peptides were measured by absorbance reduction, which is directly proportional to enzyme activ- […]
(§1) In Vitro PCSK9-LDLR Binding Assay. […] The reaction was stopped with 2.0 M sulfuric acid and the absorbance at 450nm was measured using the Synergy H1 fluorescent plate reader […]

Test [6] has as its target T1, PCSK9-LDLR. The test can be described thus: In vitro PCSK9-LDLR binding assay. The settings on record: 0.1–100 µM, LDLR-AB coated plate, 2 h at RT, absorbance 450 nm; four independent experiments in duplicate. How it is done:
Peptides P5 and P5 analogs (0.1–100 µM) were tested using the in vitro PCSK9-LDLR binding assay (CycLex Co., Nagano, Japan) following the manufacture instructions and conditions already optimized. Further details are provided in Supplementary Materials. […]
cLex Co., Nagano, Japan). The peptides (P5, P5-Best, P-H6A, and P5-S7A) were synthe-sized by the company GeneScript (Piscataway, NJ, USA) at >95% purity. The antibody against HMG-CoAR was bought from Abcam (Cambridge, UK). Phenylmethanesulfonyl fluoride (PMSF), Na-orthovanadate inhibitors, and the antibodies against rabbit Ig-horse-radish peroxidase (HRP), mouse Ig-HRP, and SREBP-2 (which recognizes epitope located in a region between 833–1141 and bands at about 132 kDa) were purchased from Santa Cruz Biotechnology Inc. (Santa Cruz, CA, USA). […]
HMG-CoAR Aactivity Assay. […] Subsequently, the samples were mixed and the absorbance at 340 nm read by the microplate reader Synergy H1 (Winooski, VT, USA) at time 0 and 10 min. The HMG-CoAR-dependent oxidation of NADPH and the inhibition properties of peptides were measured by absorbance reduction, which is directly proportional to enzyme activ- […]
as §1

[7] abbreviates: read-out: IC50, PCSK9-LDLR binding (Pep2-8 analogs).

T1 sequence (Q8NBP7 153-692): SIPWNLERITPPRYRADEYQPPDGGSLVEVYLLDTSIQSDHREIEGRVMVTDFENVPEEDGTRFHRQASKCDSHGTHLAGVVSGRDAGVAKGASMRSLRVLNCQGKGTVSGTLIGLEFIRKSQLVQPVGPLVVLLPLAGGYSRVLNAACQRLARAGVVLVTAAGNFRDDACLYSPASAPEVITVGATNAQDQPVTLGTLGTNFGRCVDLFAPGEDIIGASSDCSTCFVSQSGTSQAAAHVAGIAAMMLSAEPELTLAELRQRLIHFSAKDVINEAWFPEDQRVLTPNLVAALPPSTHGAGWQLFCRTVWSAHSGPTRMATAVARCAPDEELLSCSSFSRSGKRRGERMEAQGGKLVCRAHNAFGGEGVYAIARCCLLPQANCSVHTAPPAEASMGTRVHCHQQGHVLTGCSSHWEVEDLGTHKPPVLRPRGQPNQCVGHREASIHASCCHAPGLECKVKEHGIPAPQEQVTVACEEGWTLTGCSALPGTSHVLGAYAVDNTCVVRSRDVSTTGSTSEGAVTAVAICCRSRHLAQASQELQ
T1 sequence (Q8NBP7 31-152 partner limits assumed): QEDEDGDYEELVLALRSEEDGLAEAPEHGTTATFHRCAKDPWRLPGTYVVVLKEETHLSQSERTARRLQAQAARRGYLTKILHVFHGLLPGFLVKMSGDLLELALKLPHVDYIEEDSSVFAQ

With “[T4R,W12Y]Pep2-8: analog of peptide Pep2-8 (TVFRSWEEYLDYV)”, in test [1], the “impairment of PCSK9-LDLR binding vs control” value is recorded as −93.0%. Also, the concentration for half-maximal inhibition (IC50) in test [1] (setting [7]) is 14.5 ± 1.3 µM.

Regarding “LPKHSDAD [Peptide P5-met, breakdown fragment (metabolite) of P5]”, the “LDLR level (P5-met, words)” value in test [2] is reported as “improves the LDLR”. Besides, the “PCSK9 level (P5-met, words)” value in test [3] is “reduces PCSK9 levels”. In addition, the concentration for half-maximal inhibition (IC50) in test [1] (metabolite, read-out: IC50, PCSK9-LDLR binding (P5-met)) was 1.7 µM; in test [4], 175 µM.

For LILPKASDAD [Peptide P5-H6A], the half-maximal inhibitory concentration (IC50) came to 74.4 µM in test [5] and 9 µM in test [6].

With “[Y9A]Pep2-8: analog of peptide Pep2-8 (TVFTSWEEALDWV)”, in test [1], the “impairment of PCSK9-LDLR binding vs control” value is reported as −69.8%. For the same substance, the IC50 in test [1] (setting [7]) was 27.1 ± 1.2 µM.

Take LYLPKHSDRD [Peptide P5-Best]: the concentration for half-maximal inhibition (IC50) in test [5] is 88.9 µM.

As for LILPKHADAD [Peptide P5-S7A], the values for the IC50 in test [5] and in test [6] were 73.8 µM and 1.45 µM, respectively.
